Laboratory results reported in patent US20240398775A1, “PHARMACEUTICAL COMPOSITION FOR USE IN TREATING COGNITIVE DECLINE OR FOR USE IN TREATING OVERWEIGHT OR OBESITY” (University of the Ryukyus, priority 2021, published 2024).

Columns and labels:
[1] = system: NMDA receptor (NMDAR); assay: Ca2+ imaging (Fluo-3) of hippocampal brain slices, NMDA + glycine application (NMDA reaction); type: cell-based, mouse; conditions: for function of NMDAR in EC, CA1, CA2, CA3 and DG: leptin 100 nM
[2] = system: Ca2+ permeable AMPAR (CP-AMPAR); assay: Ca2+ imaging (Fluo-3) of hippocampal brain slices, AMPA + CTZ application (CP-AMPA reaction); type: cell-based, mouse
[3] = system: NL-G-F(−/−) mice; assay: Hippocampus function-dependent fear conditioning test in NL-G-F(−/−) mice; type: in vivo, mouse; conditions: perampanel alone 5 mg/kg or 10 mg/kg
Procedure: Contextual fear conditioning was applied with slight modifications to published protocols (50). Mice were transferred to the animal experimental room and allowed to acclimatize for at least 30 minutes prior to contextual fear conditioning training. Next, the mice were placed in a foot shock system model MK-450 MSQ (Muromachi Kikai Co., Ltd., Japan), searching was performed for 2 minutes, and then 3 electric foot shocks (0.8 mA, 2 sec, 2 min interval) were performed. After mice were left in the apparatus for an additional 1 minute, the animals were removed.
NL-G-F(−/−) mice, a dementia model, were administered with memantine (mema), exercise, memantine and exercise, memantine and perampanel, and perampanel alone (5 mg/kg or 10 mg/kg), and subjected to behavioral experiments. As the behavior test, a novel object recognition test and a hippocampus function-dependent fear conditioning test were performed. Memantine is an antagonist of the NMDA receptor, but has distinct properties from other NMDA receptor antagonists (refer to Hokama Y., et al., Neuro Oncology, 2022, noac162). That is, memantine is a drug that works only when glutamic acid is excessively present in the brain.

N[C@H](CCCP(=O)(O)O)C(=O)O [APV, D-(−)-2-amino-5 phosphonovaleric acid]
NMDA receptor reactivity to NMDA and glycine ([1]; 2 w HFD slices under calcium ion-free (0 mM Ca) conditions, in the presence of APV): disappeared | NMDA receptor reactivity to NMDA and glycine ([1]; BAPTA-AM-treated 2 w HFD slices, APV 50 μM simultaneously with NMDA and glycine): abolished

CC(=O)OCOC(=O)CN(CC(=O)OCOC(C)=O)c1ccccc1OCCOc1ccccc1N(CC(=O)OCOC(C)=O)CC(=O)OCOC(C)=O [BAPTA-AM]
NMDA receptor reactivity to NMDA (50 μM) and glycine (10 μM) ([1]; brain slices of 2 w HFD mice treated 60 min with 3 μM BAPTA-AM, n=3): restoration of reactivity

Cc1cn2c(n1)Cc1ccc(Cl)cc1C(c1ccc(N)cc1)=N2 [GYKI 47261]
increase in [Ca2+]i via AMPAR [2]: completely repressed | increase in [Ca2+]i via pathological AMPARs [2]: disappeared | inhibitory effect on CP-AMPAR in EC, CA1, CA2, CA3 and DG [2]: significant inhibitory effect

NCCCNCCCCNCCCNC(=O)Cc1cccc2ccccc12 [NASPM, N-[3-[[4-[(3-aminopropyl)amino]butyl]amino]propyl]-1-naphthaleneacetamide]
increase in [Ca2+]i via AMPAR [2]: completely repressed | increase in [Ca2+]i via pathological AMPARs [2]: disappeared | inhibitory effect on CP-AMPAR in EC, CA1, CA2, CA3 and DG [2]: significant inhibitory effect

C[C@H](CCC(=O)O)C[C@H](C)C[C@H](C)C(=O)/C=C(\O)[C@H](C)C[C@H](C)C/C=C/[C@@H](C)[C@@H](O)[C@@H](C)[C@@H](O)C[C@@H]1CC[C@@](C)([C@H]2CC[C@@](C)([C@@H](C)O)O2)O1 [ionomycin]
NMDA receptor reactivity due to addition of NMDA and glycine ([1]; slices of 14 to 16 week old mice on normal diet, 2 mM Ca2+, pretreated with 1 μM ionomycin for 10 min, n=4): disappeared

CC12CC3CC(C)(C1)CC(N)(C3)C2 [memantine]
cognitive function in hippocampus function-dependent fear conditioning test [3]: improvement in cognitive function

leptin: a hormone that regulates energy expenditure
function of NMDAR in EC, CA1, CA2, CA3 and DG ([1]; HFD mice orally administered PER): significantly enhanced | function of NMDAR in EC, CA1, CA2, CA3 and DG ([1]; ob/ob mice orally administered PER): significantly enhanced
